Assay results reported in US20200275624A1, “A METHOD FOR PRODUCING BANANA PLANTS WITH TOLERANCE TO FUSARIUM OXYSPORUM CUBENSIS TR4” (RAHAN MERISTEM (1998) LTD, priority 2017, published 2020).

Tested on: banana meristems
Test: Micropropagation of banana meristems in media comprising a cytokinin-like substance
Type: cell-based
Conditions: meristematic tissue propagation; compared with other cytokinin-like substances; TDZ in the range of 0.1 ppm
Text: In some embodiments, during the propagation stage, and typically before exposure to the demethylating agent, the meristematic tissues are propagated, at least in one propagating cycle, in a media comprising a cytokinin-like substance. Cytokinin like substances are known in the art, and non-limiting examples, include isopentenyl adenine (2iP), kinetin (KIN), 6-Benzyladenin (BA) and 6-Benzylaminopurine (BAP), 1-phenyl-3-(1,2,3-thiadiazol-5-yl) urea (TDZ).
The presence of TDZ in the culture media is in very low amounts, typically, in the range of 0.1 ppm. This amount is sufficient to induce the desired cell division.
On the 7th cycle of propagation 0.1 ppm Thidiazuron (TDZ) was added to the medium. In cycles 20 and 21, 30 μM 5-Aza-2-Deoxycytidine (a demethylation compound) was filter sterilized and added to the medium after solidification.

O=C(Nc1ccccc1)Nc1cnns1 [TDZ, 1-phenyl-3-(1,2,3-thiadiazol-5-yl) urea]
rate of multiplication: best rate of multiplication
